Values of other authors, collected in publication PMC10976394 (ACS Omega, 2024).

Conditions: human; cited from earlier work

SMILES: CC[C@@H]1CN(C(=O)NCC(F)(F)F)C[C@@H]1c1cnc2cnc3[nH]ccc3n12 [upadacitinib]
- clearance behavior under the arthritic condition: reduced the clearance behavior
